For this test, the system named is P388 leukemia ip, CD2F1 mice, survival T/C. The experiment in a line: NCI In Vivo Anticancer Drug Screen. Data for tumor model P388 Leukemia (intraperitoneal) in CD2F1 (CDF1) mice. The conditions noted are these: endpoint: median survival time, higher = longer survival. An outline of the steps: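 Mice carrying the transplanted tumor received test compound or vehicle. Survival was recorded in each group, and the value is the treated-group measurement divided by that of the vehicle-treated control group.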

The mark [1] stands for this setting: dose: 50.0 mg/kg/injection, schedule: Q01DX009 (ip), vehicle: Klucel (hydroxypropylcellulose) (HPC).
The mark [2] stands for this setting: dose: 100.0 mg/kg/injection, schedule: Q01DX009 (ip), vehicle: Klucel (hydroxypropylcellulose) (HPC).
Where [3] appears, read: dose: 200.0 mg/kg/injection, schedule: Q01DX009 (ip), vehicle: Klucel (hydroxypropylcellulose) (HPC).
[4] abbreviates: dose: 50.0 mg/kg/injection, schedule: Q01DX009 (ip), vehicle: saline.
Setting [5] is: dose: 50.0 mg/kg/injection, schedule: Q01DX005 (ip), vehicle: Klucel (hydroxypropylcellulose) (HPC).
The mark [6] stands for this setting: dose: 100.0 mg/kg/injection, schedule: Q01DX005 (ip), vehicle: Klucel (hydroxypropylcellulose) (HPC).
Setting [7] is: dose: 200.0 mg/kg/injection, schedule: Q01DX005 (ip), vehicle: Klucel (hydroxypropylcellulose) (HPC).
The mark [8] stands for this setting: dose: 100.0 mg/kg/injection, schedule: Q01DX001 (ip), vehicle: Klucel (hydroxypropylcellulose) (HPC).
[9] abbreviates: dose: 50.0 mg/kg/injection, schedule: Q01DX009 (ip), vehicle: saline with Tween-80.
Where [10] appears, read: dose: 100.0 mg/kg/injection, schedule: Q01DX009 (ip), vehicle: saline with Tween-80.
Where [11] appears, read: dose: 200.0 mg/kg/injection, schedule: Q01DX009 (ip), vehicle: saline with Tween-80.
Where [12] appears, read: dose: 50.0 mg/kg/injection, schedule: Q01DX005 (ip), vehicle: saline with Tween-80.
Setting [13] is: dose: 100.0 mg/kg/injection, schedule: Q01DX005 (ip), vehicle: saline with Tween-80.

The structures appear in SMILES notation. Several values for one entry are separate records, joined by “and”; a condition that tells them apart may be missing. Equal entries are not always repeated. Inconclusive results and toxic doses are left out.

This note sets out measurements from PubChem BioAssay AID330 (DTP/NCI, 2004).

`Cc1ccc(N2C(=O)CC3(CCCC3)C2=O)cc1C`: the T/C is, setting by setting: (dose: 100.0 mg/kg/injection, schedule: Q04DX003 (ip), vehicle: Klucel (hydroxypropylcellulose) (HPC)) 100 % of control; (dose: 200.0 mg/kg/injection, schedule: Q04DX003 (ip), vehicle: Klucel (hydroxypropylcellulose) (HPC)) 98 % of control; (dose: 400.0 mg/kg/injection, schedule: Q04DX003 (ip), vehicle: Klucel (hydroxypropylcellulose) (HPC)) 98 % of control.

Take `CC(=O)c1c(O)ccc2nc3ccccc3nc12`: the T/C was 105 % of control (dose: 50.0 mg/kg/injection, schedule: Q01DX009 (ip), vehicle: suspension in saline); 111 % of control (dose: 100.0 mg/kg/injection, schedule: Q01DX009 (ip), vehicle: suspension in saline); 93 % of control (dose: 200.0 mg/kg/injection, schedule: Q01DX009 (ip), vehicle: suspension in saline).

As for `CC12CCC3C(C1)C(C(=O)O2)C(=O)OC3(C)C` (centres undefined), the T/C is 93 % of control under setting [1], 101 % of control under setting [2] and 97 % of control under setting [3].

Consider `CSc1ccc2ccccc2c1/C=[N+](/[O-])c1ccccc1`, for which the T/C is, setting by setting: (dose: 60.0 mg/kg/injection, schedule: Q01DX005 (ip), vehicle: Klucel (hydroxypropylcellulose) (HPC)) 95 % of control; (dose: 120.0 mg/kg/injection, schedule: Q01DX005 (ip), vehicle: Klucel (hydroxypropylcellulose) (HPC)) 97 % of control; (dose: 240.0 mg/kg/injection, schedule: Q01DX005 (ip), vehicle: Klucel (hydroxypropylcellulose) (HPC)) 96 % of control.

As for `CCCCCCCCCCCCCCCC[N+]1([O-])CCCCC1`, the T/C by setting is: (dose: 12.5 mg/kg/injection, schedule: Q01DX009 (ip), vehicle: saline) 101 % of control; (dose: 25.0 mg/kg/injection, schedule: Q01DX009 (ip), vehicle: saline) 108 % of control; under setting [4], 100 % of control and 107 % of control.

In the case of `CCC(C)C(NC(=O)C(Cc1c[nH]c2ccccc12)NC(=O)OC(C)(C)C)C(=O)OC` (centres undefined), the T/C is 99 % of control (dose: 12.5 mg/kg/injection, schedule: Q01DX009 (ip), vehicle: other); 104 % of control (dose: 25.0 mg/kg/injection, schedule: Q01DX009 (ip), vehicle: other); 104 % of control (dose: 50.0 mg/kg/injection, schedule: Q01DX009 (ip), vehicle: other); 106 % of control (dose: 100.0 mg/kg/injection, schedule: Q01DX009 (ip), vehicle: other); 110 % of control (dose: 200.0 mg/kg/injection, schedule: Q01DX009 (ip), vehicle: other).

Consider `CC1(C)CC(Nc2ncnc3c2ncn3C2OC(CO)C(O)C2O)CC(C)(C)N1O` (centres undefined), for which the T/C by setting is: under setting [4], 96 % of control; (dose: 100.0 mg/kg/injection, schedule: Q01DX009 (ip), vehicle: saline) 95 % of control; (dose: 200.0 mg/kg/injection, schedule: Q01DX009 (ip), vehicle: saline) 94 % of control.

`C=C1C(=O)C2=CC1CCC(=O)C1(C)C(OC(C)=O)CC(OC(C)=O)C(C)(C)C1CC2O` (centres undefined): the T/C (dose: 17.5 mg/kg/injection, schedule: Q01DX005 (ip), vehicle: Klucel (hydroxypropylcellulose) (HPC)) is 108 % of control; the T/C (dose: 35.0 mg/kg/injection, schedule: Q01DX005 (ip), vehicle: Klucel (hydroxypropylcellulose) (HPC)) is 109 % of control; the T/C (dose: 70.0 mg/kg/injection, schedule: Q01DX005 (ip), vehicle: Klucel (hydroxypropylcellulose) (HPC)) is 111 % of control.

Consider `CCOC1(NC(=O)N(C)C)C2CCCCC21` (centres undefined), for which the T/C is 98 % of control under setting [1], 104 % of control under setting [2] and 101 % of control under setting [3].

For `COc1cc2c(cc1OC)C(C)=NCC2`, the T/C is 104 % of control (dose: 25.0 mg/kg/injection, schedule: Q01DX001 (ip), vehicle: saline); 95 % of control (dose: 50.0 mg/kg/injection, schedule: Q01DX001 (ip), vehicle: saline); 94 % of control (dose: 100.0 mg/kg/injection, schedule: Q01DX001 (ip), vehicle: saline); 98 % of control (dose: 200.0 mg/kg/injection, schedule: Q01DX001 (ip), vehicle: saline).

For `O=NNc1ccnc(-c2cc(NN=O)ccn2)c1`, the T/C was 114 % of control (dose: 3.12 mg/kg/injection, schedule: Q01DX009 (ip), vehicle: water); 120 % of control and 122 % of control (dose: 6.25 mg/kg/injection, schedule: Q01DX009 (ip), vehicle: water); 87 % of control (dose: 100.0 mg/kg/injection, schedule: Q01DX009 (ip), vehicle: water).

For the compound `O=C(/C=C/C=C/c1ccccc1)CCc1ccccc1`, the T/C runs as follows: (dose: 25.0 mg/kg/injection, schedule: Q01DX005 (ip), vehicle: Klucel (hydroxypropylcellulose) (HPC)) 95 % of control; under setting [5], 101 % of control; under setting [6], 100 % of control; under setting [7], 92 % of control.

For the compound `Cc1ccc(C(C(=O)O)(c2ccc(C)c(C)c2)C(O)C(=O)O)cc1C` (centres undefined), the T/C was 106 % of control under setting [8]; 106 % of control (dose: 200.0 mg/kg/injection, schedule: Q01DX001 (ip), vehicle: Klucel (hydroxypropylcellulose) (HPC)); 104 % of control (dose: 400.0 mg/kg/injection, schedule: Q01DX001 (ip), vehicle: Klucel (hydroxypropylcellulose) (HPC)).

For the compound `OC1CCCSc2ccccc21` (centres undefined), the T/C was 100 % of control and 95 % of control (dose: 25.0 mg/kg/injection, schedule: Q01DX009 (ip), vehicle: saline with Tween-80); 99 % of control (dose: 50.0 mg/kg/injection, schedule: Q01DX009 (ip), vehicle: saline + alcohol); 100 % of control and 97 % of control under setting [9]; 96 % of control (dose: 100.0 mg/kg/injection, schedule: Q01DX009 (ip), vehicle: saline + alcohol); 98 % of control under setting [10]; 105 % of control (dose: 200.0 mg/kg/injection, schedule: Q01DX009 (ip), vehicle: saline + alcohol). Further, the T/C runs as follows: under setting [11], 118 % of control; (dose: 400.0 mg/kg/injection, schedule: Q01DX009 (ip), vehicle: saline + alcohol) 103 % of control.

With `CC(=O)Nc1nc(C(C)(C)C)c([N+](=O)[O-])s1`, the T/C is 95 % of control under setting [9], 104 % of control under setting [10] and 95 % of control under setting [11].

`CCCCCCCCn1nnnc1C(F)(F)F`: the T/C reads like this: under setting [12], 100 % of control; under setting [13], 102 % of control; (dose: 200.0 mg/kg/injection, schedule: Q01DX005 (ip), vehicle: saline with Tween-80) 102 % of control.

For `O=c1[nH]c2nc3ccccc3n2nc1-c1ccccc1`, the T/C under setting [8] is 89 % of control.

Consider `Cc1nc2ccccc2c(=O)n1/N=C/c1ccc(Cl)cc1Cl`, for which the T/C runs as follows: under setting [12], 92 % of control; under setting [13], 100 % of control.

Consider `O=C(NC1CCC1)OCc1c(COC(=O)NC2CCC2)c(-c2ccc(Cl)c(Cl)c2)n2c1CCC2`, for which the T/C was 117 % of control (dose: 3.13 mg/kg/injection, schedule: Q01DX009 (ip), vehicle: distilled water + Tween-80); 155 % of control (dose: 12.5 mg/kg/injection, schedule: Q01DX009 (ip), vehicle: distilled water + Tween-80); 173 % of control and 194 % of control (dose: 25.0 mg/kg/injection, schedule: Q01DX009 (ip), vehicle: distilled water + Tween-80).

In the case of `CC(=O)n1oc2ccc(Br)cc2c1=O`, the T/C is 100 % of control under setting [5], 95 % of control under setting [6] and 100 % of control under setting [7].

For `CC(C)(C)c1ccc(N)c(N)c1`, the T/C by setting is: (dose: 50.0 mg/kg/injection, schedule: Q01DX009 (ip), vehicle: DMSO) 98 % of control; (dose: 100.0 mg/kg/injection, schedule: Q01DX009 (ip), vehicle: DMSO) 99 % of control.

As to `COC(=O)C1(C(=O)OC)C2C=CCC21` (centres undefined), the T/C is 96 % of control under setting [9], 102 % of control under setting [10] and 104 % of control under setting [11].

As for `CCNc1nc(NC(C)C)nc(SC)n1`, the T/C by setting is: (dose: 50.0 mg/kg/injection, schedule: Q04DX003 (ip), vehicle: saline with Tween-80) 91 % of control; (dose: 100.0 mg/kg/injection, schedule: Q04DX003 (ip), vehicle: saline with Tween-80) 100 % of control; (dose: 200.0 mg/kg/injection, schedule: Q04DX003 (ip), vehicle: saline with Tween-80) 87 % of control.
